# Experimental data published in PubChem BioAssay AID274 (DTP/NCI, 2004).
# Where “and” joins values, the source holds several entries; their conditions need not be identical. Equal entries are not always repeated. Toxic doses and inconclusive results are not listed.
# Test system: BDF1 mice, Lewis lung carcinoma iv, survival T/C
# Experiment: NCI In Vivo Anticancer Drug Screen. Data for tumor model Lewis Lung Carcinoma (intravenous) in B6D2F1 (BDF1) mice
# Conditions: endpoint: median survival time, higher = longer survival
# Method: The antitumor activity of compounds was measured in mice bearing transplantable tumors. Survival or tumor size were measured and the results are expressed as the measurement made in the treated group (T) divided by the measurement made in the vehicle treated control group (C). The tumor model used in this assay is Lewis Lung Carcinoma (intravenous) in B6D2F1 (BDF1) mice
# [1] = dose: 12.5 mg/kg/injection, schedule: Q01DX009 (ip), vehicle: saline with Tween-80
# [2] = dose: 25.0 mg/kg/injection, schedule: Q01DX009 (ip), vehicle: saline with Tween-80
# [3] = dose: 50.0 mg/kg/injection, schedule: Q01DX009 (ip), vehicle: saline with Tween-80
# [4] = dose: 100.0 mg/kg/injection, schedule: Q01DX009 (ip), vehicle: saline with Tween-80
# [5] = dose: 200.0 mg/kg/injection, schedule: Q01DX009 (ip), vehicle: saline with Tween-80
# [6] = dose: 400.0 mg/kg/injection, schedule: Q01DX009 (ip), vehicle: saline with Tween-80
# [7] = dose: 12.5 mg/kg/injection, schedule: Q01DX009 (ip), vehicle: Klucel (hydroxypropylcellulose) (HPC)
# [8] = dose: 25.0 mg/kg/injection, schedule: Q01DX009 (ip), vehicle: Klucel (hydroxypropylcellulose) (HPC)
# [9] = dose: 50.0 mg/kg/injection, schedule: Q01DX009 (ip), vehicle: Klucel (hydroxypropylcellulose) (HPC)
# [10] = dose: 100.0 mg/kg/injection, schedule: Q01DX009 (ip), vehicle: Klucel (hydroxypropylcellulose) (HPC)
# [11] = dose: 200.0 mg/kg/injection, schedule: Q01DX009 (ip), vehicle: Klucel (hydroxypropylcellulose) (HPC)
# [12] = dose: 400.0 mg/kg/injection, schedule: Q01DX009 (ip), vehicle: Klucel (hydroxypropylcellulose) (HPC)
# [13] = dose: 6.25 mg/kg/injection, schedule: Q01DX009 (ip), vehicle: Klucel (hydroxypropylcellulose) (HPC)
structure (smiles),measurement,setting,value
CN(Cc1cnc2nc(N)nc(N)c2n1)c1ccc(C(=O)N[C@@H](CCC(=O)O)C(=O)O)cc1,T/C,"dose: 0.23 mg/kg/injection, schedule: Q01DX021 (ip), vehicle: sodium bicarbonate",105 % of control
same,T/C,"dose: 0.25 mg/kg/injection, schedule: Q01DX009 (ip), vehicle: sodium bicarbonate",103 % of control
same,T/C,"dose: 0.39 mg/kg/injection, schedule: Q01DX009 (ip), vehicle: sodium bicarbonate",102 % of control
same,T/C,"dose: 0.39 mg/kg/injection, schedule: Q01DX021 (ip), vehicle: sodium bicarbonate",102 % of control
same,T/C,"dose: 0.5 mg/kg/injection, schedule: Q01DX009 (ip), vehicle: sodium bicarbonate",121 % of control
same,T/C,"dose: 0.65 mg/kg/injection, schedule: Q01DX009 (ip), vehicle: sodium bicarbonate",100 % of control
same,T/C,"dose: 0.65 mg/kg/injection, schedule: Q01DX021 (ip), vehicle: sodium bicarbonate",105 % of control
same,T/C,"dose: 1.0 mg/kg/injection, schedule: Q01DX009 (ip), vehicle: sodium bicarbonate",107 % of control and 114 % of control and 118 % of control
same,T/C,"dose: 1.08 mg/kg/injection, schedule: Q01DX009 (ip), vehicle: sodium bicarbonate",95 % of control
same,T/C,"dose: 1.08 mg/kg/injection, schedule: Q01DX021 (ip), vehicle: sodium bicarbonate",114 % of control
same,T/C,"dose: 1.8 mg/kg/injection, schedule: Q01DX009 (ip), vehicle: sodium bicarbonate",110 % of control
same,T/C,"dose: 2.0 mg/kg/injection, schedule: Q01DX009 (ip), vehicle: sodium bicarbonate",96 % of control and 114 % of control
same,T/C,"dose: 2.5 mg/kg/injection, schedule: Q04DX003 (ip), vehicle: sodium bicarbonate",90 % of control
same,T/C,"dose: 3.0 mg/kg/injection, schedule: Q01DX009 (ip), vehicle: sodium bicarbonate",114 % of control
same,T/C,"dose: 3.9 mg/kg/injection, schedule: Q04DX006 (ip), vehicle: sodium bicarbonate",96 % of control
same,T/C,"dose: 4.0 mg/kg/injection, schedule: Q01DX009 (ip), vehicle: sodium bicarbonate",96 % of control
same,T/C,"dose: 5.0 mg/kg/injection, schedule: Q04DX003 (ip), vehicle: sodium bicarbonate",103 % of control
same,T/C,"dose: 6.5 mg/kg/injection, schedule: Q04DX003 (ip), vehicle: sodium bicarbonate",100 % of control and 103 % of control
same,T/C,"dose: 6.5 mg/kg/injection, schedule: Q04DX003 (iv), vehicle: sodium bicarbonate",107 % of control
same,T/C,"dose: 6.5 mg/kg/injection, schedule: Q04DX006 (ip), vehicle: sodium bicarbonate",109 % of control
same,T/C,"dose: 10.0 mg/kg/injection, schedule: Q04DX003 (ip), vehicle: sodium bicarbonate",108 % of control
same,T/C,"dose: 10.8 mg/kg/injection, schedule: Q04DX003 (ip), vehicle: sodium bicarbonate",119 % of control and 123 % of control
same,T/C,"dose: 10.8 mg/kg/injection, schedule: Q04DX003 (iv), vehicle: sodium bicarbonate",116 % of control
same,T/C,"dose: 10.8 mg/kg/injection, schedule: Q04DX006 (ip), vehicle: sodium bicarbonate",120 % of control
same,T/C,"dose: 18.0 mg/kg/injection, schedule: Q04DX003 (iv), vehicle: sodium bicarbonate",120 % of control
same,T/C,"dose: 20.0 mg/kg/injection, schedule: Q04DX003 (ip), vehicle: sodium bicarbonate",123 % of control
same,T/C,"dose: 30.0 mg/kg/injection, schedule: Q04DX006 (ip), vehicle: sodium bicarbonate",95 % of control
Cc1ccc(S(=O)(=O)NC(=O)OC23COCN2COC3)cc1,T/C,[1],98 % of control
same,T/C,[2],105 % of control
same,T/C,[3],96 % of control
same,T/C,[4],98 % of control
same,T/C,[5],98 % of control
same,T/C,[6],101 % of control
CCOC(=O)NC(N)=O,T/C,[3],97 % of control
same,T/C,[4],100 % of control
same,T/C,[5],122 % of control
same,T/C,[6],107 % of control
CN(C1=NS(=O)(=O)N=C(N(C)c2ccccc2)O1)c1ccccc1,T/C,[7],97 % of control
same,T/C,[8],102 % of control
same,T/C,[9],97 % of control
same,T/C,[10],99 % of control
same,T/C,[11],117 % of control
same,T/C,[12],102 % of control
CC1(C)CC23C4COC(=O)C2CCC1C3CC4=O (stereo not given),T/C,"dose: 1.5 mg/kg/injection, schedule: Q01DX009 (ip), vehicle: DMSO",109 % of control
same,T/C,"dose: 6.0 mg/kg/injection, schedule: Q01DX009 (ip), vehicle: DMSO",161 % of control
same,T/C,"dose: 12.0 mg/kg/injection, schedule: Q01DX009 (ip), vehicle: DMSO",285 % of control
same,T/C,"dose: 24.0 mg/kg/injection, schedule: Q01DX009 (ip), vehicle: DMSO",185 % of control
same,T/C,"dose: 48.0 mg/kg/injection, schedule: Q01DX009 (ip), vehicle: DMSO",180 % of control
COc1cc(Cl)ccc1C,T/C,[1],111 % of control
same,T/C,[2],107 % of control
same,T/C,[3],97 % of control
same,T/C,[4],108 % of control
same,T/C,[5],102 % of control
same,T/C,[6],98 % of control
CCCCCCCCCCCCCCCC[N+]1(C)CCN(SN2CC[N+](C)(CCCCCCCCCCCCCCCC)CC2)CC1,T/C,[2],109 % of control
same,T/C,[3],100 % of control
same,T/C,[4],104 % of control
Nc1nc(N)c(N=O)c(Nc2ccc(I)cc2)n1,T/C,[3],97 % of control
same,T/C,[4],95 % of control
same,T/C,[5],95 % of control
O=C(O)CC(NC(=O)CP(=O)(O)O)C(=O)O (stereo not given),T/C,"dose: 490.0 mg/kg/injection, schedule: Q04DX003 (ip), vehicle: saline",165 % of control
same,T/C,"dose: 700.0 mg/kg/injection, schedule: Q04DX003 (ip), vehicle: saline",100 % of control
O=C1C=CC(=O)N1c1ccc(Cl)cc1,T/C,"dose: 1.25 mg/kg/injection, schedule: Q01DX009 (ip), vehicle: Klucel (hydroxypropylcellulose) (HPC)",100 % of control
same,T/C,"dose: 2.5 mg/kg/injection, schedule: Q01DX009 (ip), vehicle: Klucel (hydroxypropylcellulose) (HPC)",95 % of control
same,T/C,"dose: 5.0 mg/kg/injection, schedule: Q01DX009 (ip), vehicle: Klucel (hydroxypropylcellulose) (HPC)",96 % of control
same,T/C,"dose: 10.0 mg/kg/injection, schedule: Q01DX009 (ip), vehicle: Klucel (hydroxypropylcellulose) (HPC)",107 % of control
C=C1C(=O)OCC1(C(=O)OCC)C(=O)OCC,T/C,"dose: 4.0 mg/kg/injection, schedule: Q01DX009 (ip), vehicle: saline with Tween-80",114 % of control
same,T/C,"dose: 8.0 mg/kg/injection, schedule: Q01DX009 (ip), vehicle: saline with Tween-80",120 % of control
Cc1c2ccncc2c(C)c2c1[nH]c1ccccc12,T/C,[13],111 % of control
same,T/C,[7],93 % of control
same,T/C,[8],105 % of control
C=CC(=O)NCNC(=O)C=C,T/C,"dose: 6.25 mg/kg/injection, schedule: Q01DX009 (ip), vehicle: saline",90 % of control
same,T/C,"dose: 12.5 mg/kg/injection, schedule: Q01DX009 (ip), vehicle: saline",102 % of control and 113 % of control
same,T/C,"dose: 25.0 mg/kg/injection, schedule: Q01DX009 (ip), vehicle: saline",98 % of control and 104 % of control
same,T/C,"dose: 50.0 mg/kg/injection, schedule: Q01DX009 (ip), vehicle: saline",97 % of control and 98 % of control
same,T/C,"dose: 100.0 mg/kg/injection, schedule: Q01DX009 (ip), vehicle: saline",101 % of control and 110 % of control
CC1(C)OC1CS(=O)c1ccccc1 (stereo not given),T/C,[1],105 % of control
same,T/C,[2],99 % of control
same,T/C,[3],91 % of control
same,T/C,[4],96 % of control
same,T/C,[5],95 % of control
same,T/C,[6],114 % of control
NC(Cc1ccc(N(CCCl)CCCl)cc1)C(=O)O (stereo not given),T/C,"dose: 0.5 mg/kg/injection, schedule: Q01DX009 (ip), vehicle: Klucel (hydroxypropylcellulose) (HPC)",94 % of control
same,T/C,"dose: 1.0 mg/kg/injection, schedule: Q01DX009 (ip), vehicle: Klucel (hydroxypropylcellulose) (HPC)",97 % of control
same,T/C,"dose: 2.0 mg/kg/injection, schedule: Q01DX009 (ip), vehicle: Klucel (hydroxypropylcellulose) (HPC)",122 % of control
Clc1ccc(C2SC=Cc3ccccc32)cc1 (stereo not given),T/C,[7],94 % of control
same,T/C,[8],105 % of control
same,T/C,[9],108 % of control
same,T/C,[10],108 % of control
same,T/C,[11],115 % of control
same,T/C,[12],108 % of control
CC(=O)OCC1OC(n2cc(CBr)nn2)C(OC(C)=O)C(OC(C)=O)C1OC(C)=O (stereo not given),T/C,"dose: 3.12 mg/kg/injection, schedule: Q01DX009 (ip), vehicle: Klucel (hydroxypropylcellulose) (HPC)",87 % of control
same,T/C,[13],88 % of control
same,T/C,[7],102 % of control
same,T/C,[8],106 % of control
same,T/C,[9],96 % of control
CC1=CC(=NN=c2cc(C)n([O-])c(C)c2)C=C(C)[N+]1=O,T/C,[1],102 % of control
same,T/C,[2],100 % of control
same,T/C,[3],104 % of control
same,T/C,[4],105 % of control
same,T/C,[5],86 % of control
COP12(OCCO1)SC(C(F)(F)F)=C(C(F)(F)F)S2,T/C,"dose: 6.25 mg/kg/injection, schedule: Q01DX009 (ip), vehicle: saline with Tween-80",106 % of control
same,T/C,[1],105 % of control
same,T/C,[2],98 % of control
same,T/C,[3],95 % of control
